From ChEMBL document CHEMBL4020825, “Optimization of Potent and Selective Tricyclic Indole Diazepinone Myeloid Cell Leukemia-1 Inhibitors Using Structure-Based Design” (J Med Chem, 2018) come the findings set out here.

As a reminder, the Papp is the rate of passage across a membrane or cell layer, normalised by area and donor concentration. Read a high Papp as ready permeation. Usually Ki stands for a measure of affinity in units of concentration, obtained from inhibition or displacement. A high value points to weaker binding. Broadly, the GI50 is the concentration that inhibits growth by half.

Several values for one entry are separate records, joined by “and”; a condition that tells them apart may be missing. Equal entries are not always repeated.

Series [1] can be described thus: physchem. As to conditions: PAMPA. On the technique in general: The PAMPA barrier holds no transporters, so it reflects passive diffusion.
Description: Passive permeability of the compound by PAMPA
The target in series [2] is Bcl-2-like protein 1 (Homo sapiens, UniProt Q07817).
Description: Inhibition of FITC-Bak-BH3 binding to Bcl-XL (unknown origin) after 1.5 hrs by fluorescence polarization assay
Series [3] concerns NCI-H929. In words: cells. To be noted: Homo sapiens, NCI-H929, 72 h.
The target of series [4] is Apoptosis regulator Bcl-2 (Homo sapiens, UniProt P10415).
Description: Inhibition of FITC-Bak-BH3 binding to Bcl2 (unknown origin) after 1.5 hrs by fluorescence polarization assay
Series [5] can be described thus: in vitro. As to conditions: human, K562 cells.
For series [6], the system named is NCI-H929.
A short description of series [7]: cells. As to conditions: Homo sapiens, ALMC1, 72 h.
The test system of series [8] is MV4-11. In words: cells. As to conditions: Homo sapiens, MV4-11, 72 h.
Series [9] addresses Induced myeloid leukemia cell differentiation protein Mcl-1 (Homo sapiens, UniProt Q07820).
Description: Inhibition of FITC-Bak-BH3/FITC-Bim-BH3 binding to MCL1 (172 to 327 residues) (unknown origin) expressed in Escherichia coli BL21 CodonPlus (DE3) RIL after 1.5 hrs by fluorescence polarization assay
Series [10] can be described thus: cells. As to conditions: Homo sapiens, ALMC2, 72 h.
The test system of series [11] is OPM-2. In words: cells. As to conditions: Homo sapiens, OPM-2, 72 h.

Induced myeloid leukemia cell differentiation protein Mcl-1, sequence (Q07820 whole entry): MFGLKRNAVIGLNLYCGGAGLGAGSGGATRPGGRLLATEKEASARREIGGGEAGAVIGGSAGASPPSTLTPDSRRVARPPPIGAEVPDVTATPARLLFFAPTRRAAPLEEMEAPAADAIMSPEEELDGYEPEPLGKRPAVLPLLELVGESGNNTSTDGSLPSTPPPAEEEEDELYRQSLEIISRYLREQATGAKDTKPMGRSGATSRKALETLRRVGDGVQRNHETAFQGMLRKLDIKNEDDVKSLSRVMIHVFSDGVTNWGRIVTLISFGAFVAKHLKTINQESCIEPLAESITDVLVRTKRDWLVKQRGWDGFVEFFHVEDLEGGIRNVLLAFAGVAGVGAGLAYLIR
Bcl-2-like protein 1, sequence (Q07817 whole entry): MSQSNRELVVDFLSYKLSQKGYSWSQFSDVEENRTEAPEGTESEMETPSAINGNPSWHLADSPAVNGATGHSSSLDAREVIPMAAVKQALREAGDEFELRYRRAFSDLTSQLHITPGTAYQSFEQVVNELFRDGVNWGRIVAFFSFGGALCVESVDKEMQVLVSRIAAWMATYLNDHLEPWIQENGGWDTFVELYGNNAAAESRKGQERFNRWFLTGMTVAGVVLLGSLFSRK
Apoptosis regulator Bcl-2, sequence (P10415 whole entry): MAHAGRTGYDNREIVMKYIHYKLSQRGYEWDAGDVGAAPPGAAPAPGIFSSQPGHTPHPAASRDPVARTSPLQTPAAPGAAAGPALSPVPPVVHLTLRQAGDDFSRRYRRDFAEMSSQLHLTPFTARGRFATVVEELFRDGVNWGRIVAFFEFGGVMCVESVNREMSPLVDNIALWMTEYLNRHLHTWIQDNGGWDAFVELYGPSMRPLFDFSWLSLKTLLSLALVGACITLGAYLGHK

In [1], `Cc1cc(OCCCc2c3n(c4c(-c5c(C)nn(C)c5C)c(Cl)ccc24)CCCN(c2cccc(C(=O)O)c2)C3=O)cc(C)c1Cl` returned a Papp of 307 ×10⁻⁶ cm/s.

`Cc1cc(OCCCc2c(C(=O)NCc3cc(C(=O)O)ccn3)[nH]c3c(-c4c(C)nn(C)c4C)cccc23)cc(C)c1Cl` gave a Papp in [1] of less than 1.2 ×10⁻⁶ cm/s.

In the case of `Cc1cc(OCCCc2c(C(=O)Nc3cncc(C(=O)O)c3)[nH]c3c(-c4c(C)nn(C)c4C)c(Cl)ccc23)cc(C)c1Cl`, in series [1], the Papp is less than 1 ×10⁻⁶ cm/s.

For `Cc1cc(OCCCc2c3n(c4c(-c5c(C)nn(C)c5C)c(Cl)ccc24)CCCN(c2cn(C)c4c(C(=O)O)cccc24)C3=O)cc(C)c1Cl`, the Ki amounted to 21 µM in series [2] and 0.31 µM in series [4]. This compound gave a GI50 in series [3] of 1 µM. For the same compound, the GI50 at 72 h in [5] was more than 9.2 µM.

`Cc1cc(OCCCc2c3n(c4c(-c5c(C)nn(C)c5C)c(Cl)ccc24)CCCN(c2cc(C(=O)O)cc4c2OCO4)C3=O)cc(C)c1Cl`: the results for the Ki in series [2] and in series [4] were more than 36 µM and 0.55 µM, respectively. The compound also showed a GI50 in series [3] of 2.3 µM. Also, in series [5], the GI50 at 72 h was more than 12.5 µM. This compound also had a Papp in series [1] of 63 ×10⁻⁶ cm/s.

Take `Cc1cc(OCCCc2c3n(c4c(-c5c(C)nn(C)c5C)c(Cl)ccc24)CCCN(c2cc(C(=O)O)cc4ccn(C)c24)C3=O)cc(C)c1Cl`: the Ki in [2] is more than 36 µM; in series [4] it was 0.52 µM. For the same compound, the GI50 in series [3] turned out to be 6.1 µM. The same compound registered a GI50 at 72 h in [5] of more than 12.5 µM.

The compound `Cc1cc(OCCCc2c(C(=O)Nc3ccc(C(=O)O)o3)[nH]c3c(-c4c(C)nn(C)c4C)c(Cl)ccc23)cc(C)c1Cl` returned a Papp in [1] of 2.3 ×10⁻⁶ cm/s.

For the compound `Cc1cc(OCCCc2c3n(c4c(-c5c(C)nn(C)c5C)c(Cl)ccc24)CCCN(c2cn(C)c4ccc(C(=O)O)cc24)C3=O)cc(C)c1Cl`, the GI50 in [6] was 0.28 µM and 0.33 µM; in [3] it was 0.3 µM. Besides, the Ki in [2] came out at 26 µM; in series [4] it was 0.56 µM. The compound further came in with a GI50 at 72 h in series [5] of more than 12.5 µM.

For `Cc1cc(OCCCc2c3n(c4c(-c5c(C)nn(C)c5C)cc(Cl)cc24)CCCN(c2cc(C(=O)O)c4ccn(C)c4c2)C3=O)cc(C)c1Cl`, the GI50 worked out at 6.6 µM in [7]; 6.2 µM in [8]; 6 µM in series [3]; 9.9 µM in series [10]; 5.7 µM in [11]. The compound further registered a Ki in series [9] of 0.094 µM. In addition, in [5], it took 7.7 µM to inhibit growth by half (GI50 at 72 h).

As for `Cc1cc(OCCCc2c(C(=O)NCC(=O)O)[nH]c3ccccc23)cc(C)c1Cl`, the inhibition constant Ki in series [9] is 0.62 µM.

In the case of `Cc1cc(OCCCc2c3n(c4c(-c5c(C)nn(C)c5C)c(Cl)ccc24)CCCN(c2cc(C(=O)O)c4ccn(C)c4c2)C3=O)cc(C)c1Cl`, the GI50 in series [7] is 1.5 µM; in series [8], 0.77 µM; in series [3], 1.4 to 1.6 µM; in [10], 3.2 µM; in [11] it was 1.4 µM. Moreover, the Ki was 19 µM in [2] and 0.58 µM in [4]. For the same compound, the GI50 at 72 h in series [5] lay within 11 to 11.5 µM. This compound returned a Papp in series [1] of 21 ×10⁻⁶ cm/s.

The compound `Cc1cc(OCCCc2c(C(=O)Nc3ccc(C(=O)O)cc3)[nH]c3c(-c4c(C)nn(C)c4C)c(Cl)ccc23)cc(C)c1Cl` displayed a Papp in [1] of 1.2 ×10⁻⁶ cm/s.

In the case of `Cc1cc(OCCCc2c(C(=O)Nc3cc(C(=O)O)ccn3)[nH]c3c(-c4c(C)nn(C)c4C)c(Cl)ccc23)cc(C)c1Cl`, in [1], the Papp was less than 3.3 ×10⁻⁶ cm/s.

`Cc1cc(OCCCc2c(C(=O)NCc3cccc(C(=O)O)c3)[nH]c3c(-c4c(C)nn(C)c4C)c(Cl)ccc23)cc(C)c1Cl` returned an apparent permeability coefficient (Papp) in series [1] of less than 7.6 ×10⁻⁶ cm/s.

For the compound `Cc1cc(OCCCc2c3n(c4c(-c5c(C)nn(C)c5C)c(Cl)ccc24)CCCN(c2cccc4c(C(=O)O)cccc24)C3=O)cc(C)c1Cl`, the figures for the Ki in [2] and in series [4] were 11 µM and 0.25 µM, respectively. Further, the GI50 in series [3] amounted to 1 µM. Halving of growth in series [5] (GI50 at 72 h) required 5.7 µM. This compound also gave a Papp in series [1] of 4.4 ×10⁻⁶ cm/s.

Regarding `Cc1cc(OCCCc2c(C(=O)NCc3ccc(C(=O)O)o3)[nH]c3ccccc23)cc(C)c1Cl`, in series [9], the Ki amounted to 0.069 µM.

In series [9], `COC(=O)CNC(=O)c1[nH]c2ccccc2c1CCCOc1cc(C)c(Cl)c(C)c1` displayed a Ki of 3.2 µM.

For `Cc1cc(OCCCc2c(C(=O)Nc3ccc(C(=O)O)cn3)[nH]c3c(-c4c(C)nn(C)c4C)c(Cl)ccc23)cc(C)c1Cl`, the Papp in [1] is less than 2.3 ×10⁻⁶ cm/s.

Consider `Cc1cc(OCCCc2c3n(c4c(-c5c(C)nn(C)c5C)c(Cl)ccc24)CCCN(c2cn(C)c4cc(C(=O)O)ccc24)C3=O)cc(C)c1Cl`, for which the Ki is more than 36 µM in series [2] and 0.53 µM in [4]. Growth in series [3] was halved (GI50) at 0.33 µM. Also, the GI50 at 72 h in [5] worked out at 5.8 µM.

Turning to `Cc1cc(OCCCc2c3n(c4c(-c5c(C)nn(C)c5C)cc(Cl)cc24)CCCN(c2cc(C(=O)O)cc4c2ccn4C)C3=O)cc(C)c1Cl`, the GI50 is 7.7 µM in series [7]; 9.1 µM in [8]; 10 µM in series [3]; 12 µM in series [10]; 8.9 µM in series [11]. Besides, the Ki in series [9] was 0.13 µM. In series [5], this compound displayed a GI50 at 72 h of 10 µM.

Regarding `Cc1cc(OCCCc2c3n(c4c(-c5c(C)nn(C)c5C)c(Cl)ccc24)CCCN(c2ccc(C(=O)O)c4ccn(C)c24)C3=O)cc(C)c1Cl`, the results for the Ki in series [2] and in series [4] were more than 36 µM and 0.44 µM, respectively. For the same compound, the GI50 in series [3] worked out at 5.7 µM. Also, the GI50 at 72 h in series [5] is more than 12.5 µM. In series [1], this compound displayed a Papp of 4.8 ×10⁻⁶ cm/s.

Compound `Cc1cc(OCCCc2c(C(=O)NCCC(=O)O)[nH]c3ccccc23)cc(C)c1Cl` had a Ki in [9] of 0.57 µM.

`Cc1cc(OCCCc2c3n(c4c(-c5c(C)nn(C)c5C)c(Cl)ccc24)CCCN(Cc2cccc(C(=O)O)c2)C3=O)cc(C)c1Cl` returned a Papp in series [1] of 143 ×10⁻⁶ cm/s.

In [1], `Cc1cc(OCCCc2c(C(=O)Nc3cccc(C(=O)O)n3)[nH]c3c(-c4c(C)nn(C)c4C)c(Cl)ccc23)cc(C)c1Cl` registered a Papp of less than 1.6 ×10⁻⁶ cm/s.

Consider `Cc1cc(OCCCc2c3n(c4c(-c5c(C)nn(C)c5C)c(Cl)ccc24)CCCN(c2ccc(C(=O)O)c4cccnc24)C3=O)cc(C)c1Cl`, for which the Ki in [2] was more than 36 µM; in series [4], 0.49 µM. Moreover, the GI50 in series [3] turned out to be 3.3 µM. Moreover, the GI50 at 72 h in [5] stood at 6.2 µM. The Papp in [1] was determined as 122 ×10⁻⁶ cm/s.
